Experimental data reported in the NIST ThermoML archive (doi:10.1021/je100577v).

How the values were obtained:
[1] = Liquid; for mass density: Vibrating tube method; for vapor or sublimation pressure: Ebulliometric method (Recirculating still)
[2] = xn = mol fraction of the nth substance listed; conditions: Liquid, Vibrating tube method, x2 = 0

CC12CCC(CC1)C(C)(C)O2 [1,3,3-trimethyl-2-oxabicyclo[2.2.2]octane]
mass density [kg/m3], [1]
Conditions | 20000 kPa | 25000 kPa | 30000 kPa | 35000 kPa | 40000 kPa
283.15 K | 945.9 | 949.1 | 952 | 954.9 | 957.6
298.15 K | 934.1 | 937.4 | 940.5 | 943.4 | 946.4
313.15 K | 922.3 | 925.8 | 929.1 | 932.4 | 935.5
328.15 K | 910.6 | 914.3 | 917.9 | 921.3 | 924.7

[1]
Conditions | vapor or sublimation pressure [kPa]
326.65 K | 1.33
341.55 K | 2.67
357.25 K | 5.33
363.45 K | 6.67
381.45 K | 13.33
392.75 K | 20
401.75 K | 26.66
408.65 K | 33.33
414.65 K | 40
419.95 K | 46.66
424.65 K | 53.33
428.85 K | 60
432.75 K | 66.66
436.35 K | 73.33
439.75 K | 79.99
442.85 K | 86.66
445.85 K | 93.33
448.65 K | 99.61
449.15 K | 101.33

CCCO [propan-1-ol]
mass density [kg/m3], [1]
Conditions | 20000 kPa | 25000 kPa | 30000 kPa | 35000 kPa | 40000 kPa
283.15 K | 825.1 | 828.4 | 831.5 | 834.5 | 837.4
298.15 K | 814.2 | 817.6 | 820.9 | 824 | 827.1
313.15 K | 803.1 | 806.9 | 810.4 | 813.7 | 817
328.15 K | 792 | 795.8 | 799.6 | 803.1 | 806.6

[1]
Conditions | vapor or sublimation pressure [kPa]
319.65 K | 10
327.25 K | 15
332.95 K | 20
337.45 K | 25
341.25 K | 30
343.55 K | 33.33
344.65 K | 35
347.65 K | 40
350.35 K | 45
352.75 K | 50
355.05 K | 55
357.05 K | 60
359.05 K | 65
359.65 K | 66.66
360.85 K | 70
362.55 K | 75
364.15 K | 80
365.65 K | 85
367.15 K | 90
370.05 K | 101.33

CCCO [propan-1-ol] + CC12CCC(CC1)C(C)(C)O2
mass density [kg/m3], [2]
Conditions | 20000 kPa | 25000 kPa | 30000 kPa | 35000 kPa | 40000 kPa
283.15 K | 825.1 | 828.4 | 831.5 | 834.5 | 837.4
298.15 K | 814.2 | 817.6 | 820.9 | 824 | 827.1
313.15 K | 803.1 | 806.9 | 810.4 | 813.7 | 817
328.15 K | 792 | 795.8 | 799.6 | 803.1 | 806.6
